Here are results for three molecules from patent publication US5532167A, “Substrate specificity of protein kinases” (Beth Israel Hospital, priority 1994, dated 1996).

As a reminder, the Km is the concentration of substrate that gives half-maximal velocity.

Where no end group is shown, it is not given here.

In one assay the target is PKA (Bos taurus, UniProt P00517). The note with it: relative to Kemptide; cited from earlier work.
Another assay deals with T1, cyclin A/p33^CDK2 (Homo sapiens, UniProt P24941).
T1 construct: made in house
The assay is described as follows: Kinetics of cyclin A/p33CDK2 phosphorylating synthetic peptide. It counts as biochemical. To be noted: peptide as substrate; 10 μM ATP, 10 mM MgCl2, pH 7.0. From the text: (§1) The degenerate peptide library constructed as described in Example 1, with either serine or tyrosine at the 7th position, was used as a substrate for several different protein kinases. Protein kinase A (bovine) was obtained commercially (Sigma). GST-cyclin B/p33^cdc2 (Atherton-Fessler et al. (1993) Mol. Cell. Biol. 13:1675-1685), GST-cyclinA/p33^CDK2 (Atherton-Fessler et al. (1993) Mol. Cell. Biol. 13:1675-1685), human EGF receptor, chicken pp60^v-src, polyoma virus middle T antigen/pp60^c-src (Piwnica-Worms et al. (1990) J. Virol. 64:61-68) and pp92^c-pfs/fes were expressed by baculoviruses. The baculovirus-expressed protein kinases were immobilized on protein A beads using precipitating antibodies or on glutathione-agarose bead for kinases obtained as GST fusion proteins to minimize the problem of separating the peptides from the enzyme or impurities in the enzyme. […]
(§2) The peptide sequences predicted to be optimal substrates for the cyclindependent serine/threonine kinases and for pp60^v-src tyrosine kinase were synthesized to determine whether they are indeed good substrates for these kinases. […] After 2 and a half minutes incubation, the supernatants were spotted on phosphocellulose paper (p81), washed four times with 75 mM phosphoric acid, and radioactivity counted on a scintillation counter. […] The Km and Vmax were calculated using the Kaleidagraph computer software.

A further assay concerns the target T2, EGF receptor (Homo sapiens, UniProt P00533).
T2 construct: made in house
Description: Kinetics of EGF receptor phosphorylating synthetic peptide. In kind it is biochemical. To be noted: peptide as substrate; 10 μM ATP, 10 mM MnCl2, pH 7.0.
Description: as §1, §2

With “Optimal peptide substrate based on fragment of Walsh inhibitor: known PKA peptide substrate, sequence G R T G R R N S I, from the literature (GRTGRRNSI)”, the “fold lower KM than Kemptide” value in the assay with PKA was 40 fold.
In the case of “ARRPMSPKKKA [ARRPMSPKKKA, Ala-Arg-Arg-Pro-Met-Ser-Pro-Lys-Lys-Lys-Ala]”, the Michaelis-Menten constant (Km) at cyclin A/p33^CDK2 was determined as 15 µM.
Regarding `CC[C@H](C)[C@H](NC(=O)[C@H](CCC(=O)O)NC(=O)[C@H](CCC(=O)O)NC(=O)[C@H](CCC(=O)O)NC(=O)[C@H](C)N)C(=O)N[C@@H](Cc1ccc(O)cc1)C(=O)NCC(=O)N[C@@H](CCC(=O)O)C(=O)N[C@@H](Cc1ccccc1)C(=O)N[C@@H](CCC(=O)O)C(=O)N[C@@H](C)C(=O)N[C@@H](CCCCN)C(=O)N[C@@H](CCCCN)C(=O)N[C@@H](CCCCN)C(=O)N[C@@H](CCCCN)C(=O)O` [AEEEIYGEFEAKKKK, Ala-Glu-Glu-Glu-Ile-Tyr-Gly-Glu-Phe-Glu-Ala-Lys-Lys-Lys-Lys], the Michaelis-Menten constant (Km) on EGF receptor is 34 µM.
